Experimental data: PMC10245146, “CNS4 causes subtype‐specific changes in agonist efficacy and reversal potential of permeant cations in NMDA receptors” (Pharmacology Research & Perspectives, 2023)
Several values for one entry are separate records, joined by “and”; a condition that tells them apart may be missing. Identical values can stand only once.

Assays:
Type in all cases: cell-based
GluN1/2A NMDA receptors [1] = biological target: T1, GluN1/2A NMDA receptors (UniProt P35439+Q12879); test: Current-voltage (I-V) relationship, Xenopus oocytes expressing 1/2A; conditions: for Difference in reversal potential (∆Erev) between W and WO CNS4 / Difference in reversal potential (∆Erev) between WO and W CNS4: 100 μM CNS4; for Reversal potential (Erev): with 100 μM CNS4
T1 construct: expressed in transfected cells; host or cells: Xenopus oocytes (cRNA injection)
T1 sequence (Q12879 23-1464, other chains not shown): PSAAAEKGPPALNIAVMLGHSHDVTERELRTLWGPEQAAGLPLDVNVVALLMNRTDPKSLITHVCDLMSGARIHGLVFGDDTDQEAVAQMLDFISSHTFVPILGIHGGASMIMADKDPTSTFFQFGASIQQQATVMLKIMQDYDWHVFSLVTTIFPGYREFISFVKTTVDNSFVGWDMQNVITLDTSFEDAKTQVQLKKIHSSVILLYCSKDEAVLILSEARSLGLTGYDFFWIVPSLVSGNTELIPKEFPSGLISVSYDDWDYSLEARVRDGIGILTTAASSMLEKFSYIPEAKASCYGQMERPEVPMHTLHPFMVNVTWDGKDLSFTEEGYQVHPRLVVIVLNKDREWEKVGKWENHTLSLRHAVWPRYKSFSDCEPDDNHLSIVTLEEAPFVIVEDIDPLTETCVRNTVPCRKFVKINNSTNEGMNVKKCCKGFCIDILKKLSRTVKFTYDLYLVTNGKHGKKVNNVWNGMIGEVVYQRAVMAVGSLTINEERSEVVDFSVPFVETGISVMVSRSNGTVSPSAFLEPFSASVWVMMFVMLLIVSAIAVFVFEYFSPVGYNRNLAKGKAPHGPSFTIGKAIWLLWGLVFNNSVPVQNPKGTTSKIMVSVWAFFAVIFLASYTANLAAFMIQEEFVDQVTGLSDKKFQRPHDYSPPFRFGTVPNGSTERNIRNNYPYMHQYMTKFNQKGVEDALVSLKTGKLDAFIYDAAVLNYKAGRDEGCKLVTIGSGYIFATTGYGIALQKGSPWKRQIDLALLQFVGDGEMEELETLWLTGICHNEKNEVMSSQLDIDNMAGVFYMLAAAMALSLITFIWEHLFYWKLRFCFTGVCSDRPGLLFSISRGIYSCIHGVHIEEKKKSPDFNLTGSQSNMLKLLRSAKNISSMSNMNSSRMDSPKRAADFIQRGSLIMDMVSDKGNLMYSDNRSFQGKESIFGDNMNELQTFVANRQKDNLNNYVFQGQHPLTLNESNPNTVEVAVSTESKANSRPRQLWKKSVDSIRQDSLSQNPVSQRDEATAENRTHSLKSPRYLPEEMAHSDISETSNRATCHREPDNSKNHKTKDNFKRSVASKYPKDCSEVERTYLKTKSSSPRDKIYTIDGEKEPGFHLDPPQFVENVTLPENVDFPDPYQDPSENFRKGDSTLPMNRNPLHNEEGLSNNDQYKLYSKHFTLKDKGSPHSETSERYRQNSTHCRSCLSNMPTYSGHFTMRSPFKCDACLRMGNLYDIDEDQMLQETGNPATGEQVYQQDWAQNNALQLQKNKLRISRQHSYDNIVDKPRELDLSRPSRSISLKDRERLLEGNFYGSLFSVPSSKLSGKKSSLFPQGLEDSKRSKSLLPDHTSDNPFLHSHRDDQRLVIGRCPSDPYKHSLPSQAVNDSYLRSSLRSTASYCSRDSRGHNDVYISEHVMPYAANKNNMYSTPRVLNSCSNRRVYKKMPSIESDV
Description: There are two sets of recording solutions used for the I‐V assay: solutions with normal (1) and low (2) Ca^2+ concentrations. The normal Ca^2+ solutions contained (mM): 115 NaCl, 1 KCl, 1.8 CaCl2, 10 HEPES. PH was adjusted to 7.2. Low calcium solutions contained 0.018 mM CaCl2 and other components were the same as normal Ca^2+ solution. To study the effects of CNS4 in the absence of extracellular Na^+, NaCl was replaced with impermeable agent, N‐methyl‐D‐glucamine (NMDG, […]). HCl was used to dissolve the NMDG and to adjust the PH to 7.2. NMDG‐containing solutions are termed Nafree. […] There were four different agonist solutions used for each set of Ca^2+ recordings: (1) Agonist, (2) Agonist+CNS4, (3) Agonist in Nafree solution, (4) Agonist+CNS4 in Nafree solution. Each solution was applied to the oocytes in sequential order and the same order was followed for all I‐V recordings. Low Ca^2+ experiments were carried out in the same way as normal Ca^2+ experiments, except that they had 0.018 mM Ca^2+ in all four agonist and recording solutions. Steady state current responses evoked by these solutions at each voltage step were measured. Reversal potentials (Erev) were obtained from x‐intercept values when y = 0 after fitting the I‐V data using a third order polynomial, non‐linear curve fitting equation Y=B0+B1^*X+B2^*X^2+B3^*X^3 . Erev obtained from each oocyte with different agonists were compared in a pairwise manner. These differences were then averaged. Paired or unpaired student t‐test was performed to compare the data as mentioned in each figure legend.
FIGURE 5 Effect on CNS4 on agonist induced current directions in 1/2A receptors. Current –Voltage (I‐V) relationship of 1/2A receptors was studied with normal (A) and low (B) CaCl2 containing extracellular solutions. […] (C) Comparison of reversal potentials values. Dark and light blue circles indicate normal and low CaCl2 experiments, respectively. Dark and light red squares indicate equivalent I‐V experiments with NMDG (Nafree). Dotted and thick lines denote the absence (empty circles or squares) and presence (filled circles or squares) of 100 μM CNS4, respectively. Traces (Ai&ii, Bi&ii) represent the current response at −90 mv. N = 5 (5) & n = 7(7) for normal & low Ca^2+ assays, respectively. Erev obtained from each oocyte with different agonists were compared in a pairwise manner. Paired student t‐test was performed to compare the data presented at Ci. Unpaired student's t‐test was performed to compare the difference in reversal potentials (triangles). *p < .05, **p < .01, ***p < .001, […].

GluN1/2A NMDA receptors [2] = biological target: T1, GluN1/2A NMDA receptors; test: TEVC agonist dose-response, Xenopus oocytes expressing 1/2A
From the text: (§1) NMDA receptor constructs: cDNA encoding the NMDA receptor1a subunit (GluN1a) was obtained from Dr. Nakanishi (Kyoto, Japan). cDNA encoding the GluN2B (pci_sepGluN2B), originally developed in the Malinow lab,[33] was purchased from Addgene (cat# 23998), Cambridge, MA. cDNA encoding the GluN2C and GluN2D were purchased from GenScript, New Jersey, USA. Mutated GluN1, 2A and 2B cDNA constructs capable of assembling as GluN1/2A/2B triheteromeric (1/2AB) receptors[34] were obtained from Dr. Paoletti (Laboratoire de Neurobiologie, CNRS). These constructs have been previously tested for 1/2AB receptor activity of GluN1/2A receptor‐selective potentiators.[35] […] Plasmids were linearized with NotI (GluN1a and all five GluN1 mutants) or Avrll (GluN2B), or BstB1 (GluN2C and GluN2D) and transcribed in vitro with T7 (GluN1a, GluN1/2A, GluN2B, GluN2C & GluN2D), and SP6 (GluN1 mutants) RNA polymerase using the mMessage mMachine transcription kits (Invitrogen by Thermo Fisher Scientific).
(§2) Stage IV frog oocytes were obtained from Xenopus‐I, (Ann Arbor, MI, USA). NMDA receptor subunit cRNAs were suspended in nuclease free sterile water. GluN1A, GluN2B, GluN2C, GluN2D and GluN1/2A/2B cRNAs were mixed in a ratio of 1:1–3. 50 nL of the final cRNA mixture was microinjected (40–70 ng total) into the oocyte cytoplasm. Oocytes were incubated in ND‐96 solution at 18°C prior to electrophysiological recordings (2–5 days).
(§3) Electrophysiological responses were measured using a standard two‐microelectrode voltage‐clamp workstation (Warner Instruments model OC‐725C) designed to provide a fast clamp of large cells. The recording buffer contained 116 mM NaCl, 2 mM KCl, 0.3 mM BaCl2, and 5 mM HEPES, pH 7.4. Response magnitude was determined in Xenopus oocytes expressing different NMDA receptor subunits (GluN1/2A, 1/2B, 1/2C, 1/2D, and 1/2A/2B) by the steady plateau response elicited by bath application of different agonist concentrations. […] All data points were obtained from the steady state currents unless stated otherwise. Dose–response relationships were fit to an appropriate curve‐fitting equation using GraphPad Prism‐7. Non‐linear regression was used to calculate EC50, IC50, and fold change or percentage maximal response. Curves were fit using the following equations as performed in the previous studies, [37]: Y=100/1+10^LogEC50−XorY=Bottom+Top−Bottom/1+10^LogEC50−X . Statistical significance was determined at the overall alpha level 0.05, using appropriate statistical methods as described in all figure captions. Technical and biological replicates are explicitly mentioned in each figure legend, as n = X (Y). X represents technical repeats (number of traces) and Y represents biological repeats (number of oocytes or HEK293T cells studied). […]

[3] = test system: GluN1/2A/2B triheteromeric (1/2AB) NMDA receptors; test: TEVC agonist dose-response, Xenopus oocytes expressing 1/2AB
From the text: as §1, §2, §3

GluN1/2D NMDA receptors = biological target: T2, GluN1/2D NMDA receptors (UniProt O15399+P35439); test: TEVC agonist dose-response, Xenopus oocytes expressing 1/2D
T2 construct: host or cells: Xenopus oocytes (cRNA injection)
T2 sequence (O15399 28-1336, other chains not shown): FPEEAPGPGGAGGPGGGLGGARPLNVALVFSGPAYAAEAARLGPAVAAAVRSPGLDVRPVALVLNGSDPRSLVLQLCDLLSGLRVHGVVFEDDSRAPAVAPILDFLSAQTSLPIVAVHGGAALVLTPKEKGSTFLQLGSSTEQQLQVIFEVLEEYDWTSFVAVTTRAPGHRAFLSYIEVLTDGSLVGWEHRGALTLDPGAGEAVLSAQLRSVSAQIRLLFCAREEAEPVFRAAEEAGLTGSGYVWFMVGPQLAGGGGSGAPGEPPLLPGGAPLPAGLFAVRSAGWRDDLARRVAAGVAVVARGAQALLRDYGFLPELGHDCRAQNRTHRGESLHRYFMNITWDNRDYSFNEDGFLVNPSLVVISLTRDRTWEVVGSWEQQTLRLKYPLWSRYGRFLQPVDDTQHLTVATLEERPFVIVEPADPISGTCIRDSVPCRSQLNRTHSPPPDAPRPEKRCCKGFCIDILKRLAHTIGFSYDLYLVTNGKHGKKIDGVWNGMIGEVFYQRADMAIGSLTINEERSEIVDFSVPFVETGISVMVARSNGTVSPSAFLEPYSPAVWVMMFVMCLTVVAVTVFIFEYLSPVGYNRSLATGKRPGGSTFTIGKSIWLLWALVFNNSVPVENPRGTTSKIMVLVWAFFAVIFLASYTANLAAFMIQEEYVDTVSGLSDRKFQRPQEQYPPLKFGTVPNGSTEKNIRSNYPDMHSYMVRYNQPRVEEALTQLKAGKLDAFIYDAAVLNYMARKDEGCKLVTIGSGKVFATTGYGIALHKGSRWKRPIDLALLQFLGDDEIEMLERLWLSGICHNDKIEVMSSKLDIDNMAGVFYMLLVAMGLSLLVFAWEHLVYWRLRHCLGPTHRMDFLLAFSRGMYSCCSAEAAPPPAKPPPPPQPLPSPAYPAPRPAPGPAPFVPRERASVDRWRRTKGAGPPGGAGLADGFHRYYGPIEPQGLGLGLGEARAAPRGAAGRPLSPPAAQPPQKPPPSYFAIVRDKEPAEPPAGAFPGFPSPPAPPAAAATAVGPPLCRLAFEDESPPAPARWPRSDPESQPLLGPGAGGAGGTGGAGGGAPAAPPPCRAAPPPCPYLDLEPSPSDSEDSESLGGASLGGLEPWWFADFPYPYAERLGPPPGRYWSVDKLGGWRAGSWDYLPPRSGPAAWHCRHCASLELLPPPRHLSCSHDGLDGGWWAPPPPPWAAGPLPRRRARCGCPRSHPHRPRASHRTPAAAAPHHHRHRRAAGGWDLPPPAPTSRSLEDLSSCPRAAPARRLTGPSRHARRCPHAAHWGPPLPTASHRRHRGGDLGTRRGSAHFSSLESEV
From the text: as §1, §2, §3

SMILES: O=C(NC(=S)N1CCCCC1c1cccnc1)c1ccc(F)cc1 (stereo not drawn) [CNS4]
- Difference in reversal potential (∆Erev) between W and WO CNS4 (GluN1/2A NMDA receptors [1]; low Ca2+, Nafree, n = 7): −7.32 ± 3.95 mV
- Difference in reversal potential (∆Erev) between W and WO CNS4 (GluN1/2A NMDA receptors [1]; low Ca2+, with Na+, n = 6): 8.76 ± 3.15 mV
- Difference in reversal potential (∆Erev) between WO and W CNS4 (GluN1/2A NMDA receptors [1]; normal Ca2+, Nafree, n = 3): −6.79 ± 1.98 mV
- Difference in reversal potential (∆Erev) between WO and W CNS4 (GluN1/2A NMDA receptors [1]; normal Ca2+, with Na+, n = 4): 24.85 ± 3.26 mV
- Reversal potential (Erev) (GluN1/2A NMDA receptors [1]; 1.8 mM (normal) Ca2+, with Na+, 100 μM glutamate + glycine, without CNS4 −12.05 ± 8.18, p = .004): 10.49 ± 8.23 mV
- Reversal potential (Erev) (GluN1/2A NMDA receptors [1]; low Ca2+, Nafree, without CNS4 −61.38 ± 3.99, p = .113): −68.71 ± 4.82 mV
- Reversal potential (Erev) (GluN1/2A NMDA receptors [1]; normal Ca2+, Nafree (NMDG), without CNS4 −18.16 ± 5.09, p = .16): −32.93 ± 7.03 mV
- 100 μM glutamate induced relative current amplitude (glutamate efficacy) (GluN1/2A NMDA receptors [2]; absence of glycine, presence of CNS4, n = 6(3)): 0.04 ± 0.02 fold
- Glutamate efficacy (GluN1/2A NMDA receptors [2]; in the presence of 30 μM glycine and 30 μM CNS4, n = 9 (3)): 297.8 ± 71.06 fold
- Glycine efficacy: relative fold change in current at highest glycine concentration (GluN1/2A NMDA receptors [2]; with 30 μM CNS4, 100 μM glutamate constant, relative to 1 μM glycine, average ± SEM, p = .19): 2.59 ± 0.36 fold
- Glutamate efficacy: relative fold change in current at highest glutamate concentration (GluN1/2A NMDA receptors [2]; with 30 μM CNS4, 100 μM glycine constant, relative to 1 μM glutamate, p = .2898): 2.95 ± 0.45 fold
- Reduction in glutamate efficacy with vs without CNS4 ([3]; 30 μM CNS4): 5.3 fold
- Glycine efficacy: relative fold change in current at highest glycine concentration ([3]; with 30 μM CNS4, 100 μM glutamate constant, relative to 1 μM glycine, p = .0019): 1.37 ± 0.08 fold
- Glutamate efficacy: relative fold change in current at highest glutamate concentration ([3]; with 30 μM CNS4, 100 μM glycine constant, relative to 1 μM glutamate, p = .0001): 2.79 ± 0.43 fold
- Effect on glutamate efficacy with vs without CNS4 (insignificant) (GluN1/2D NMDA receptors; 30 μM CNS4): 0.8 fold
- Increase in glycine efficacy with vs without CNS4 (GluN1/2D NMDA receptors; 30 μM CNS4, 10 μM glycine): 1.89 fold and 1.9 fold
- Glycine efficacy: relative fold change in current at highest glycine concentration (GluN1/2D NMDA receptors; with 30 μM CNS4, 10 μM glycine, 100 μM glutamate constant, relative to 100 nM glycine, p = .0014): 2.04 ± 0.19 fold
- Glutamate efficacy: relative fold change in current at highest glutamate concentration (GluN1/2D NMDA receptors; with 30 μM CNS4, 100 μM glycine constant, relative to 100 nM glutamate, p = .1735): 6.90 ± 0.62 fold
